One may read the EC50 as the concentration giving half of the maximal effect.

One assay addresses TLR8 (Homo sapiens (Human), UniProt Q9NR97). The assay can be described thus: TLR8 human peripheral blood mononuclear cell (PBMC) cell-based assay (Compound A as agonist; TNFα and IL12p40 readout). Conditions: human PBMCs, TLR8 agonist Compound A at 800 nM, 6 hours, antagonist potency; read-out: TLR-8 EC50. As to the method: After counting, the cell density was adjusted to 2 million cells/ml and incubated for 1 hour at 37° C., 5% CO2 for recovery. Following the recovery, the cells were plated by adding 50 μl per well (100,000 cells) to 384-well cell culture plates (Greiner) containing 250 nl of test antagonists in 100% DMSO per well, in a 10 points dose response in quadruplicates. PBMCs were incubated in the presence of antagonists for one hour at 37° C., 5% CO2 before being stimulated with TLR8 agonist. […] PBMCs were incubated in the presence of antagonist and the TLR8 agonist for an additional 6 hours at 37° C., 5% CO2. At the end of the incubation, the cell culture plates were centrifuged at 500 g for 5 min, and the cell culture supernatant was collected. The level of cytokines (TNFα and IL12p40) in the supernatant was measured by electrochemiluminescence immunoassays (Mesoscale Discovery) following manufacturer's recommended protocols.

The target in the next assay is TLR7 (Homo sapiens (Human), UniProt Q9NYK1). The assay can be described thus: TLR7 human peripheral blood mononuclear cell (PBMC) cell-based assay (GS-986 as agonist; IL-6 and IFNα readout). To be noted: human PBMCs, TLR7 agonist GS-986 at 400 nM, 6 hours, antagonist potency; read-out: TLR-7 EC50. As to the method:
Human peripheral blood mononuclear cells (PBMCs) consist of lymphocytes, monocytes and dendritic cells that express TLR7, TLR8 and TLR9. These cells respond to TLR7, TLR8 and TLR9 ligand stimulation and produce cytokines and chemokines in vitro and in vivo. Human PBMCs are therefore suitable to be used in a cell-based assay to assess the in vitro potency of a TLR 7, 8, and/or 9 antagonist.
After counting, the cell density was adjusted to 2 million cells/ml and incubated for 1 hour at 37° C., 5% CO2 for recovery. Following the recovery, the cells were plated by adding 50 μl per well (100,000 cells) to 384-well cell culture plates (Greiner) containing 250 nl of test antagonists in 100% DMSO per well, in a 10 points dose response in quadruplicates. PBMCs were incubated in the presence of test antagonists for one hour at 37° C., 5% CO2 before being stimulated with a TLR7 or TLR9agonist. […] PBMCs were incubated in the presence of the test antagonist and the TLR7 (or TLR9) agonist for an additional 6 hours at 37° C., 5% CO2. At the end of the incubation, the cell culture plates were centrifuged at 500 g for 5 min, and the cell culture supernatant was collected. The level of cytokines (IL-6 and IFNα) in the supernatant was measured by electrochemiluminescence immunoassays (Mesoscale Discovery) following manufacturer's recommended protocols.

Sequence of TLR7 (Q9NYK1 27-1049): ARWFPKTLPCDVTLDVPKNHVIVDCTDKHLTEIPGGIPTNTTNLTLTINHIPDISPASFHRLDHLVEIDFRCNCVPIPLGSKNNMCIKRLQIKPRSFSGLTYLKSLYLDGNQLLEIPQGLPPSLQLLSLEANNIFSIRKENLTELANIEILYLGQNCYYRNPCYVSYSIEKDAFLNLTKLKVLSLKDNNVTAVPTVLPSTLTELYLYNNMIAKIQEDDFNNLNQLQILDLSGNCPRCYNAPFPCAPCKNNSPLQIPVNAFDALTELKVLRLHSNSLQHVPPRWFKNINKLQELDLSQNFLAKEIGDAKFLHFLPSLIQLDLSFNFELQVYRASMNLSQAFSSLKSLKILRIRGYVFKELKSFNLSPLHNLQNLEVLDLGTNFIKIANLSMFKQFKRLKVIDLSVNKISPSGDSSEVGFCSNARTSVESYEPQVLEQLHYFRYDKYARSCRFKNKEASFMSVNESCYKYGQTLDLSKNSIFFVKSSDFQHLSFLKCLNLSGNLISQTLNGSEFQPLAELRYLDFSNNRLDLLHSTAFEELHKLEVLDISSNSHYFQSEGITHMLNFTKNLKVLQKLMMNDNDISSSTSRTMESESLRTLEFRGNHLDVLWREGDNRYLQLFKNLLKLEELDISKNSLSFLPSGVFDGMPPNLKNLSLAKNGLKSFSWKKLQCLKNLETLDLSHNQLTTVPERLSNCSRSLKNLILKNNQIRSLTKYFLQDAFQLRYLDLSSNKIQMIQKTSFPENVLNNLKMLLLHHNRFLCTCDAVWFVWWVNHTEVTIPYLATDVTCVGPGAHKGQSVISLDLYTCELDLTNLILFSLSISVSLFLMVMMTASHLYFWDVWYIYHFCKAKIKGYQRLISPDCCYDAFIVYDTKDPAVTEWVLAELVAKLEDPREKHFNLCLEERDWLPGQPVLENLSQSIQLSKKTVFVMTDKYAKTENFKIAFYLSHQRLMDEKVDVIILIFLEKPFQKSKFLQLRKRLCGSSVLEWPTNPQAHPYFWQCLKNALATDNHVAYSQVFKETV
Sequence of TLR8 (Q9NR97 27-1041): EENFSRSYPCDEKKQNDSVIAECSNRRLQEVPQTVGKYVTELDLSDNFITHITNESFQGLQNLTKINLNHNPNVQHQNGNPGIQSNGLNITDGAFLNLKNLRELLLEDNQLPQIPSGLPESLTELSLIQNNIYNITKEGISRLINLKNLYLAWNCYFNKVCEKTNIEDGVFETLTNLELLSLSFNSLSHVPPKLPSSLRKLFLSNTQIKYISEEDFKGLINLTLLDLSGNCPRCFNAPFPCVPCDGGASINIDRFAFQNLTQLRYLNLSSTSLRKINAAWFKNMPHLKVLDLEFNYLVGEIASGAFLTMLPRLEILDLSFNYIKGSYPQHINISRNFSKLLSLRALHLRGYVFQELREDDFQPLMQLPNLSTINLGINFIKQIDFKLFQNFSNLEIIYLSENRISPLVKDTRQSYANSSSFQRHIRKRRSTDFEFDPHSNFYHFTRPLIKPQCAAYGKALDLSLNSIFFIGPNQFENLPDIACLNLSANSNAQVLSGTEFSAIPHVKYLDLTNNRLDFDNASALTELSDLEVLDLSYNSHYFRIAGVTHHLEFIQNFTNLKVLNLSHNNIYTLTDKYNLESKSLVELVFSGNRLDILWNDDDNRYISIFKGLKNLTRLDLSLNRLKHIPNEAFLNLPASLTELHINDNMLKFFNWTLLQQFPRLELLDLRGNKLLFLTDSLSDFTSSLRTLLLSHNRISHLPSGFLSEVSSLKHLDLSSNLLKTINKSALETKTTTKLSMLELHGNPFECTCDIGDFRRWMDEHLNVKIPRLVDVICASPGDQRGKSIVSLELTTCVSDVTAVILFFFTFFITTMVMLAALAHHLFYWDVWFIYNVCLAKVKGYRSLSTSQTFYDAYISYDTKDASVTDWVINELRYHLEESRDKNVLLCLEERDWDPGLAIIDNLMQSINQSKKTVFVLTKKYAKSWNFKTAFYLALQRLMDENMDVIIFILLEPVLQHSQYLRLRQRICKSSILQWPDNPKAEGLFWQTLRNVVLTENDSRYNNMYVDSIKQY

Regarding `Cc1c(-c2[nH]c3sc([C@H]4C[C@@H](c5nnc([C@@H]6COCCN6)o5)C4)c(C)c3c2C(C)C)cn2ncnc2c1C` (single isomer, unassigned) [Example 243], the figures for the EC50 on TLR8 and on TLR7 were 21.4 nM and 1.25 nM, respectively.
For `Cc1c(-c2[nH]c3sc(C4CC(n5cc(C6COCCN6)nn5)C4)c(C)c3c2C(C)C)cn2ncnc2c1C` (single isomer, unassigned) [Example 244, 3-(1-(3-(5-(7,8-dimethyl-[1,2,4]triazolo[1,5-a]pyridin-6-yl)-4-isopropyl-3-methyl-6H-thieno[2,3-b]pyrrol-2-yl)cyclobutyl)-1H-1,2,3-triazol-4-yl)morpholine] the same measures were 9.43 nM and 0.14 nM.
The corresponding values for `Cc1c(-c2[nH]c3sc(C4CC(n5cc(C6COCCN6)nn5)C4)c(C)c3c2C(C)C)cn2ncnc2c1C` (single isomer, unassigned) [Example 245, 3-(1-(3-(5-(7,8-dimethyl-[1,2,4]triazolo[1,5-a]pyridin-6-yl)-4-isopropyl-3-methyl-6H-thieno[2,3-b]pyrrol-2-yl)cyclobutyl)-1H-1,2,3-triazol-4-yl)morpholine] are 3.33 nM and 0.17 nM.
The corresponding values for `Cc1c(C2CCCN(CC(N)=O)CC2)sc2[nH]c(-c3cc(C)c4ncnn4c3)c(C(C)C)c12` (single isomer, unassigned) [Example 262, 2-(4-(4-isopropyl-3-methyl-5-(8-methyl-[1,2,4]triazolo[1,5-a]pyridin-6-yl)-6H-thieno[2,3-b]pyrrol-2-yl)azepan-1-yl)acetamide] are 4.54 nM and < 0.05 nM.
For `Cc1c(C2CCCN(CC(N)=O)CC2)sc2[nH]c(-c3cc(C)c4ncnn4c3)c(C(C)C)c12` (single isomer, unassigned) [Example 263, 2-(4-(4-isopropyl-3-methyl-5-(8-methyl-[1,2,4]triazolo[1,5-a]pyridin-6-yl)-6H-thieno[2,3-b]pyrrol-2-yl)azepan-1-yl)acetamide], the EC50 on TLR8 amounted to 18.6 nM; at TLR7, 1.17 nM.
The corresponding values for `Cc1c(-c2[nH]c3sc(C4CCN(C5CCNC5=O)CC4)c(C)c3c2C(C)C)cn2ncnc2c1C` (single isomer, unassigned) [Example 290, 3-[4-[5-(7,8-dimethyl-[1,2,4]triazolo[1,5-a]pyridin-6-yl)-4-isopropyl-3-methyl-6H-thieno[2,3-b]pyrrol-2-yl]-1-piperidyl]pyrrolidin-2-one] are 19.3 nM and 0.65 nM.
The corresponding values for `Cc1c(-c2[nH]c3sc(C4CCN(C5CCNC5=O)CC4)c(C)c3c2C(C)C)cn2ncnc2c1C` (single isomer, unassigned) [Example 291, 3-[4-[5-(7,8-dimethyl-[1,2,4]triazolo[1,5-a]pyridin-6-yl)-4-isopropyl-3-methyl-6H-thieno[2,3-b]pyrrol-2-yl]-1-piperidyl]pyrrolidin-2-one] are 22.2 nM and 0.6 nM.
`Cc1c(-c2[nH]c3sc(C4CCC5(CC4)CNCCO5)c(C)c3c2C(C)C)cn2ncnc2c1C` (single isomer, unassigned) [Example 292, 9-(5-(7,8-dimethyl-[1,2,4]triazolo[1,5-a]pyridin-6-yl)-4-isopropyl-3-methyl-6H-thieno[2,3-b]pyrrol-2-yl)-1-oxa-4-azaspiro[5.5]undecane]: the concentration for a half-maximal effect (EC50) is 3.91 nM on TLR8 and 0.09 nM on TLR7.
Regarding `Cc1c(-c2[nH]c3sc(C4CCC5(CC4)CNCCO5)c(C)c3c2C(C)C)cn2ncnc2c1C` (single isomer, unassigned) [Example 293, 9-(5-(7,8-dimethyl-[1,2,4]triazolo[1,5-a]pyridin-6-yl)-4 isopropyl-3-methyl-6H-thieno[2,3-b]pyrrol-2-yl)-1-oxa-4-azaspiro[5.5]undecane], the EC50 worked out at 20.5 nM on TLR8 and 1.67 nM on TLR7.
For `Cc1c(-c2[nH]c3sc(C4CCC(N5CC6(CCNC6=O)C5)CC4)c(C)c3c2C(C)C)cn2ncnc2c1C` (single isomer, unassigned) [Example 305, 2-[4-[5-(7,8-dimethyl-[1,2,4]triazolo[1,5-a]pyridin-6-yl)-4-isopropyl-3-methyl-6H-thieno[2,3-b]pyrrol-2-yl]cyclohexyl]-2,6-diazaspiro[3.4]octan-5-one] the same measures were 4.44 nM and 0.78 nM.
Turning to `Cc1c(-c2[nH]c3sc(C4CCC(N5CC6(CCNC6=O)C5)CC4)c(C)c3c2C(C)C)cn2ncnc2c1C` (single isomer, unassigned) [Example 306, 2-[4-[5-(7,8-dimethyl-[1,2,4]triazolo[1,5-a]pyridin-6-yl)-4-isopropyl-3-methyl-6H-thieno[2,3-b]pyrrol-2-yl]cyclohexyl]-2,6-diazaspiro[3.4]octan-5-one], the values for the EC50 at TLR8 and on TLR7 were 0.49 nM and < 0.05 nM, respectively.
The corresponding values for `Cc1c(-c2[nH]c3sc(C4CC5(CCN(CCS(C)(=O)=O)C5)C4)c(C)c3c2C(C)C)cn2ncnc2c1C` (single isomer, unassigned) [Example 313, 5-(7,8-dimethyl-[1,2,4]triazolo[1,5-a]pyridin-6-yl)-4-isopropyl-3-methyl-2-(6-(2-(methylsulfonyl)ethyl)-6-azaspiro[3.4]octan-2-yl)-6H-thieno[2,3-b]pyrrole] are 1.19 nM and 2.51 nM.
The corresponding values for `Cc1c(-c2[nH]c3sc(C4CC5(CCN(CCS(C)(=O)=O)C5)C4)c(C)c3c2C(C)C)cn2ncnc2c1C` (single isomer, unassigned) [Example 314, 5-(7,8-dimethyl-[1,2,4]triazolo[1,5-a]pyridin-6-yl)-4-isopropyl-3-methyl-2-(6-(2-(methylsulfonyl)ethyl)-6-azaspiro[3.4]octan-2-yl)-6H-thieno[2,3-b]pyrrole] are 1.22 nM and 10 nM.
For the compound `Cc1c(-c2[nH]c3sc(C4CCC45CN(CC(N)=O)C5)c(C)c3c2C(C)C)cn2ncnc2c1C` (single isomer, unassigned) [Example 315, 2-(5-(5-(7,8-dimethyl-[1,2,4]triazolo[1,5-a]pyridin-6-yl)-4 isopropyl-3-methyl-6H-thieno[2,3-b]pyrrol-2-yl)-2-azaspiro[3.3]heptan-2-yl)acetamide], the concentration for a half-maximal effect (EC50) came out at 32.4 nM on TLR8 and 28.2 nM on TLR7.
The corresponding values for `Cc1c(-c2[nH]c3sc(C4CCC45CN(CC(N)=O)C5)c(C)c3c2C(C)C)cn2ncnc2c1C` (single isomer, unassigned) [Example 316, 2-(5-(5-(7,8-dimethyl-[1,2,4]triazolo[1,5-a]pyridin-6-yl)-4-isopropyl-3-methyl-6H-thieno[2,3-b]pyrrol-2-yl)-2-azaspiro[3.3]heptan-2-yl)acetamide] are 108 nM and 47.3 nM.
On to `Cc1cc(-c2[nH]c3sc(C(=O)N(C)C4CCNCC4)cc3c2C(C)C)cn2ncnc12` [Example 1, 4-isopropyl-N-methyl-5-(8-methyl-[1,2,4]triazolo[1,5-a]pyridin-6-yl)-N-(piperidin-4-yl)-6H-thieno[2,3-b]pyrrole-2-carboxamide], for which the concentration giving a half-maximal response (EC50) came to 8.93 nM at TLR8 and 0.56 nM on TLR7.
Turning to `Cc1cc(-c2[nH]c3sc(C(=O)N4CCNCC4)cc3c2C(C)C)cn2ncnc12` [Example 2], the EC50 at TLR8 was found to be 5.79 nM; on TLR7, 1.04 nM.
The corresponding values for `Cc1cc(-c2[nH]c3sc(C(=O)N(C)[C@H]4CCNC4)cc3c2C(C)C)cn2ncnc12` [Example 3] are 9.95 nM and 0.27 nM.

For the origin of these results see patent US11661431B2, “Thienopyrrole compounds” (Gilead Sciences, Inc., priority 2021, dated 2023).
